Values of other authors, collected in patent US20140329781A1, “METHODS FOR TREATING CARDIOVASCULAR DISORDER” (WOCKHARDT LIMITED, priority 2011, published 2014).

What was measured:
[1] = water
albumin = albumin (Homo sapiens, UniProt P02768)
Sequence of albumin (P02768 25-609, species assumed): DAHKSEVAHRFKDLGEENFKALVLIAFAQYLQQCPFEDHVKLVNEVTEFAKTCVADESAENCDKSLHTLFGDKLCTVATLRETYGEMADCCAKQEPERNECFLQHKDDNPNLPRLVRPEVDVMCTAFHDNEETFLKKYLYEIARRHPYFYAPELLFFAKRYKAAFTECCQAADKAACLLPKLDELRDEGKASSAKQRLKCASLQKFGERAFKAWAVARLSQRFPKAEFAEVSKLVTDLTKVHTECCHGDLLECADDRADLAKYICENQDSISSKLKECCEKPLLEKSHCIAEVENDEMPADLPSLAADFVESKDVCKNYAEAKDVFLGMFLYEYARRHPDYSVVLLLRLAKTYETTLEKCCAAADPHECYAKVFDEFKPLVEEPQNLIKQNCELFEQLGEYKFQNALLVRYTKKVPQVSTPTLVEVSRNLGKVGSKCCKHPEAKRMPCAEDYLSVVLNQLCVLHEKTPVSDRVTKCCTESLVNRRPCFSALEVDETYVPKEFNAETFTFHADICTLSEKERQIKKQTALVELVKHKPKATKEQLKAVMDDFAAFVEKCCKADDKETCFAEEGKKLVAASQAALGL

bioavailability (incomplete due to extensive first pass metabolism) | solubility (in words) [1] | bioavailability (in words) (extensive first pass metabolism in the liver) | protein bound to albumin (albumin) | Compound
about 50% | highly soluble | – | – | COCCc1ccc(OCC(O)CNC(C)C)cc1 (centres unmarked) [Metoprolol]
– | poorly water-soluble | low | 94-98% | COC(=O)[C@H](c1ccccc1Cl)N1CCc2sccc2C1 [Clopidogrel]
